{"source": "patent EP0336958B1", "about": "“PRODUCT CONTAINING AS ACTIVE PRINCIPLES: A) A PEPTIDE HAVING AN ACTIVITY OF THE TYPE OF THAT OF HUMAN GAMMA INTERFERON, B) HYDROXYUREA” (priority 1987, dated 1989)", "test_system": "cellules HL-60", "settings": "hydroxyurée alone, 150 uM", "data": [{"smiles": "NC(=O)NO", "note": "[hydroxyurée]", "values": [{"measurement": "inhibition de la croissance des cellules HL-60", "result": "inhibition suffisante de la croissance des cellules HL-60"}]}]}
